From ChEMBL document CHEMBL1137981, “Identification and specificity studies of small-molecule ligands for SH3 protein domains” (J Med Chem, 2004)

Key:
[1] = target: T1, Tyrosine-protein kinase TEC (Mus musculus, UniProt Q8CFK4); assay: Displacement of PRP-1 peptide from mouse Tec kinase SH3 domain by fluorescence polarization
T1 sequence (Q8CFK4 whole entry): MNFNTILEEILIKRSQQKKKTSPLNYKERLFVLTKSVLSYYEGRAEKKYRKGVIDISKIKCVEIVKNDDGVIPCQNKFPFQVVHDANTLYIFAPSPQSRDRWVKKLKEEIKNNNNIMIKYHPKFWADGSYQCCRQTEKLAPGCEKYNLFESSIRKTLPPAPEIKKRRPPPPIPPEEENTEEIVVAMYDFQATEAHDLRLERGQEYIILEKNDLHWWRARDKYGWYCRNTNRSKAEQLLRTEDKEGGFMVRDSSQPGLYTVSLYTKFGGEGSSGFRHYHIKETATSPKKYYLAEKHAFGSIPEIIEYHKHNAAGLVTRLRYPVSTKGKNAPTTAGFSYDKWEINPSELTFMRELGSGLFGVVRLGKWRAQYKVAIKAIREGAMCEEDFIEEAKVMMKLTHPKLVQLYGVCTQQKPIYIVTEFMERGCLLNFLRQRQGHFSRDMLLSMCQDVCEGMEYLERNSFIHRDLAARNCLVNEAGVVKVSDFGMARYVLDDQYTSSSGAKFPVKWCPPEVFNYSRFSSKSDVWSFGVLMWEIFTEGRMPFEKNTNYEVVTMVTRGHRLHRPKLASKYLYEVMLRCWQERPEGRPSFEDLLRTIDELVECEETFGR

[2] = target: T1, Tyrosine-protein kinase TEC; assay: Binding affinity to mouse Tec kinase SH3 domain by NMR chemical shift perturbation
[3] = target: SH2/SH3 adapter protein NCK1 (Homo sapiens, UniProt P16333); assay: Displacement of PRP-1 peptide from human Nck […] SH3 domain by fluorescence polarization
[4] = target: T1, Tyrosine-protein kinase TEC; assay: Binding affinity to mouse Tec kinase SH3 domain by NMR chemical shift perturbation; No binding
[5] = Ionization constant (pKa) for the compound; format: physicochemical
[6] = target: T1, Tyrosine-protein kinase TEC; assay: Binding affinity to mouse Tec kinase SH3 domain by NMR chemical shift perturbation; No binding; remark: listed apart in the source
[7] = target: T1, Tyrosine-protein kinase TEC; assay: Displacement of PRP-1 peptide from mouse Tec kinase SH3 domain by fluorescence polarization; No competition

COc1ccc2nc(N)ccc2c1
EC50 [1]: 63 µM

CC1(C)COC(c2ccc3nc(N)ccc3c2)OC1
Kd [2]: 22 µM

Nc1ccc2cc(F)ccc2n1
EC50 [1]: 150 µM

Nc1ccc2cc(C3OCCO3)ccc2n1
EC50 [3]: 300 µM | EC50 [1]: 34 µM | Kd [2]: 40 µM

Cc1ccc2nc(N)ccc2c1
EC50 [3]: 90 µM | EC50 [1]: 75 µM | Kd [2]: 61 µM

c1ccc2ncccc2c1 [QUINOLINE]
Kd [4]: Not Active

Nc1ccc2ccccc2c1 [NAPHTHYLAMINE]
Kd [4]: Not Active

Nc1ccccn1 [2-AMINOPYRIDINE]
Kd [2]: > 4000 µM

Nc1ccc2cc(C3OCCCO3)ccc2n1
EC50 [3]: > 500 µM | EC50 [1]: 26 µM | Kd [2]: 52 µM

Nc1ccc2cc(Br)ccc2n1
EC50 [1]: 58 µM

CC(=O)Nc1ccc2ccccc2n1
Kd [4]: Not Active

Nc1ncccn1
pKa [5]: 3.54 | Kd [6]: Not Active

Nc1ncc2ccccc2n1
pKa [5]: 4.82

Nc1ccc2cccc(O)c2n1
EC50 [7]: Not Active

O=c1ccc2ccccc2[nH]1
Kd [4]: Not Active

Nc1ccc2cc(Cl)ccc2n1
EC50 [1]: 76 µM

CNc1ccc2ccccc2n1
Kd [2]: 380 µM
